Reference: article PMC10249031 (ACS Omega, 2023)
Read-outs that look alike come from different tables or passages of the source.

Columns and labels:
EGFR-TK = EGFR-TK (Homo sapiens, UniProt P00533); assay: ADP-Glo Kinase Assay, EGFR tyrosine kinase inhibition; assay type: biochemical; conditions: for EGFR-TK inhibitory activity (screening): at 1 μM, compared to erlotinib, n = 2
A549 cells = assay: MTT cytotoxicity assay, A549; assay type: cell-based, human; conditions: for Cell viability of A549: 10 μM
Vero cells = assay: MTT cytotoxicity assay, Vero normal cell line; assay type: cell-based, monkey; conditions: Primates, 72 h, read-out: IC50 Vero
A431 cells [1] = assay: cells; conditions: Homo sapiens, A-431, 72 h, read-out: IC50 A431
A431 cells [2] = conditions: 10 μM, 72 h, MTT
[3] = Homo sapiens, A549, 72 h, read-out: IC50 A549

Sequence of EGFR-TK (P00533 25-1210): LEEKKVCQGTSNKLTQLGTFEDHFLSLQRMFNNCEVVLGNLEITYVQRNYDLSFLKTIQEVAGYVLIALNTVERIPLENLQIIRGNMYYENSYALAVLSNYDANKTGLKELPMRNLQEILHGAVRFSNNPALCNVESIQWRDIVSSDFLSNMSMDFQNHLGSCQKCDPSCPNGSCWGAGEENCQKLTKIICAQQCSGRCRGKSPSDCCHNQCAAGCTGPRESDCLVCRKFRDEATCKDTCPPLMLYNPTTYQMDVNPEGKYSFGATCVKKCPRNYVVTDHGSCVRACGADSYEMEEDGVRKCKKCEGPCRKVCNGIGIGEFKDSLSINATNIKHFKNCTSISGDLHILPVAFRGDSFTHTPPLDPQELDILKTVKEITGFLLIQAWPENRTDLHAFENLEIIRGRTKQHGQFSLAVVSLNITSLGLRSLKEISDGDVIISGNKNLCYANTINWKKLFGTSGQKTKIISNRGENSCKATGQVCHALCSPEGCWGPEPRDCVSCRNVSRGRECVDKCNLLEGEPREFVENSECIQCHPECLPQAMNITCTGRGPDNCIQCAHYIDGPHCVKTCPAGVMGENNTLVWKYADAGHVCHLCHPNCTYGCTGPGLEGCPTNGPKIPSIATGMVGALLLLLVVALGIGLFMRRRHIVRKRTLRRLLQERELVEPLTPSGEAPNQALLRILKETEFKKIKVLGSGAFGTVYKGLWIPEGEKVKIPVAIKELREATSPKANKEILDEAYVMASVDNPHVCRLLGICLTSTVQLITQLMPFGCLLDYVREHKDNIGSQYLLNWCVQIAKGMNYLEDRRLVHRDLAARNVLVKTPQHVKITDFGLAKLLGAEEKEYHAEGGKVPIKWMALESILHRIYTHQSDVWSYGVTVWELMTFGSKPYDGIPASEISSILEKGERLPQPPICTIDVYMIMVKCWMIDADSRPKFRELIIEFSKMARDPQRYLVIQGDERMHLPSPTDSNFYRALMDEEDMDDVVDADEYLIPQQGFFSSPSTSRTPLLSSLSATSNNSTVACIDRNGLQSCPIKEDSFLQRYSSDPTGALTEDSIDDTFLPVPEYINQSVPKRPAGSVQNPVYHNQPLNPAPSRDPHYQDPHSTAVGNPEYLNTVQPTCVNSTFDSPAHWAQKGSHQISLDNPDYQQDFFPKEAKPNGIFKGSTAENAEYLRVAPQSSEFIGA

Structure (SMILES) | IC50 (EGFR-TK) [µM] | IC50 (A431 cells [1]) [µM] | EGFR-TK inhibitory activity (screening) (EGFR-TK) | IC50 (A549 cells; Homo sapiens, A549, 72 h, read-out: IC50 A549, MTT, 72 h) [µM] | IC50 (A549 cells; read-out: IC50 A549, MTT, 72 h) [µM] | IC50 (Vero cells) [µM] | Cell viability of A549 (A549 cells; 72 h, MTT) | IC50 (A549 cells; [3]) [µM] | Cell viability of A431 (A431 cells [2])
C#Cc1cccc(Nc2ncnc3cc(OCCOC)c(OCCOC)cc23)c1 [erlotinib, reference compound] | – | – | – | 33.3 | 33.3 ± 1.88 | 35 ± 1.35 | – | – | –
Cc1ccc(S(=O)(=O)c2c3c4ccccc4n(C)c(-c4ccccc4)c-3c3ccccc23)c(C)c1 [SIQ8] | – | 14.1 ± 0.73 | higher EGFR-TK inhibitory activity than erlotinib | – | – | 21.7 ± 0.5 | more vulnerable | 27.2 ± 0.71 | –
COc1ccc(S(=O)(=O)c2c3c4ccccc4n(C)c(-c4ccccc4)c-3c3ccccc23)cc1 [SIQ3] | – | 17.7 ± 0.35 | higher EGFR-TK inhibitory activity than erlotinib | – | – | > 100 | more vulnerable | 33.5 ± 0.47 | more susceptible
Cn1c(-c2ccccc2)c2c3ccccc3c(S(=O)(=O)c3ccc(Cl)cc3)c-2c2ccccc21 [SIQ5] | – | 9.93 ± 0.45 | higher EGFR-TK inhibitory activity than erlotinib | – | – | 8.06 ± 0.15 | more vulnerable | 16.8 ± 0.41 | more susceptible

More lines, main results first:

IC50 (EGFR-TK) [µM] | IC50 (A431 cells [1]) [µM] | Structure (SMILES) | EGFR-TK inhibitory activity (screening) (EGFR-TK) | IC50 (A549 cells; Homo sapiens, A549, 72 h, read-out: IC50 A549, MTT, 72 h) [µM] | IC50 (A549 cells; read-out: IC50 A549, MTT, 72 h) [µM] | IC50 (Vero cells) [µM] | Cell viability of A549 (A549 cells; 72 h, MTT) | IC50 (A549 cells; [3]) [µM] | Cell viability of A431 (A431 cells [2])
0.0232 ± 0.00876 | – | COc1ccc(-c2c3c4ccccc4c(S(=O)(=O)c4ccc(C)cc4)c-3c3ccccc3n2C)cc1 [SIQ11] | higher EGFR-TK inhibitory activity than erlotinib | – | – | – | – | – | –
0.0214 ± 0.00574 | – | Cc1ccc(-c2c3c4ccccc4c(S(=O)(=O)c4ccc(C)cc4)c-3c3ccccc3n2C)cc1 [SIQ10] | higher EGFR-TK inhibitory activity than erlotinib | – | – | – | – | – | –
– | 19.2 ± 0.97 | Cc1ccc(S(=O)(=O)c2c3c4ccccc4n(C)c(-c4ccc(C)cc4C)c-3c3ccccc23)cc1 [SIQ17] | higher EGFR-TK inhibitory activity than erlotinib | – | – | > 100 | more vulnerable | 33 ± 0.59 | –
– | 13.1 ± 0.5 | Cc1ccc(S(=O)(=O)c2c3c4ccccc4n(C)c(-c4ccc(Cl)cc4)c-3c3ccccc23)cc1 [SIQ12] | higher EGFR-TK inhibitory activity than erlotinib | – | – | 7.25 ± 0.12 | more vulnerable | 23.2 ± 0.42 | more susceptible
– | 11.9 ± 0.41 | Cc1ccc(S(=O)(=O)c2c3c4cc(C)ccc4n(C)c(-c4ccccc4)c-3c3ccccc23)cc1 [SIQ19] | higher EGFR-TK inhibitory activity than erlotinib | – | – | 5.88 ± 0.33 | – | 29.3 ± 0.44 | more susceptible
